Assays:
Assay type in all cases: in vitro ADME
CYP3A4 = CYP3A4 (Homo sapiens (Human), UniProt P08684); test: CYP3A4 inhibition in human liver microsomes (midazolam substrate); settings: human liver microsome
Description: (§1) Test Example 7. Inhibitory Effect of Compound of the Present Application on Enzymatic Activity of CYP2C9, CYP2D6, and CYP3A4
(§2) The inhibition of CYP2C9, CYP2D6, and CYP3A4 activity by the compound of the present application was determined using the following method.
(§3) I. Experimental materials and instruments • 1. Human liver microsome (Corning 452117) • 2. NADPH (Solarbio 705Y021) • 3. Positive substrates diclofenac (Sigma SLBV3438), dextromethorphan (TRC 3-EDO-175-1), and midazolam (Cerilliant FE01161704) • 4. Positive inhibitors sulfaphenazole (D. Ehrenstorfer GmbH 109012), quinidine (TCI WEODL-RE), and ketoconazole (Sigma 100M1091V) • 5. AB Sciex Triple Quad 5500 liquid chromatography-mass spectrometry system
(§4) 1. Preparation of 100 mM phosphate-buffered saline (PBS): 7.098 g Na2HPO4 was weighed. 500 mL pure water was added. The mixture was dissolved by sonication to give solution A. 3.400 g KH2PO4 was weighed. 250 mL pure water was added. The mixture was dissolved by sonication to give solution B. The solution A was placed in a stirrer, and the solution B was slowly added until the pH reached 7.4, so that the 100 mM PBS buffer was prepared.
(§5) 2. A 10 mM NADPH solution was prepared with a 100 mM PBS buffer. A 10 mM stock solution of the compound of the present application was diluted with DMSO to give a compound working solution at a concentration of 200×(6000, 2000, 600, 200, 60, 20, and 0 μM). The positive inhibitor stock solution was diluted with DMSO to give a positive inhibitor working solution at a concentration of 200×(sulfaphenazole, 1000, 300, 100, 30, 10, 3, and 0 μM; quinidine/ketoconazole, 100, 30, 10, 3, 1, 0.3, and 0 μM). Substrate working solutions (120 μM diclofenac, 400 μM dextromethorphan, and 200 μM midazolam) at a concentration of 200× were prepared with water, acetonitrile, or acetonitrile/methanol.
(§6) 3. 2 μL of 20 mg/mL liver microsome solution, 1 μL of substrate working solution, 1 μL of compound working solution, and 176 μL of PBS buffer were taken, mixed well, and placed in a 37° C. water bath for pre-incubation for 15 min. 1 μL of sulfaphenazole, quinidine, or ketoconazole working solution was added to the positive control group instead of the compound working solution. At the same time, 10 mM NADPH solution was placed together in the 37° C. water bath for pre-incubation for 15 min. After 15 min, 20 μL of NADPH was added to each well to initiate the reaction. The mixture was incubated at 37° C. for 5 min (CYP2C9), 20 min (CYP2D6), or 5 min (CYP3A4). All incubated samples were in duplicate. After incubation for the corresponding period of time, 400 μL of icy methanol containing internal standard was added to all samples to stop the reaction. The mixture was vortexed, mixed well, and centrifuged for 40 min at 4° C. at 3220 g. 100 μL of the supernatant was transferred to a feeding plate after the centrifugation was completed, and 100 μL ultrapure water was added. The mixture was well mixed for LC-MS/MS analysis.
(§7) The reduction of metabolite production in the treatment groups versus the control group was compared by the peak area ratios of the sample to the internal standard, and the IC50 value was calculated using Excel XLfit 5.3.1.3.
(§8) Percentages of remaining activity were calculated according to the following formula:
(§9) Remaining activity%=peak area ratio of metabolite to internal standardtest sample/peak area ratio of metabolite to internal standardblank solvent×100%.

CYP2D6 = CYP2D6 (Homo sapiens (Human), UniProt P10635); test: CYP2D6 inhibition in human liver microsomes (dextromethorphan substrate); settings: human liver microsome
CYP2D6, sequence (P10635 whole entry): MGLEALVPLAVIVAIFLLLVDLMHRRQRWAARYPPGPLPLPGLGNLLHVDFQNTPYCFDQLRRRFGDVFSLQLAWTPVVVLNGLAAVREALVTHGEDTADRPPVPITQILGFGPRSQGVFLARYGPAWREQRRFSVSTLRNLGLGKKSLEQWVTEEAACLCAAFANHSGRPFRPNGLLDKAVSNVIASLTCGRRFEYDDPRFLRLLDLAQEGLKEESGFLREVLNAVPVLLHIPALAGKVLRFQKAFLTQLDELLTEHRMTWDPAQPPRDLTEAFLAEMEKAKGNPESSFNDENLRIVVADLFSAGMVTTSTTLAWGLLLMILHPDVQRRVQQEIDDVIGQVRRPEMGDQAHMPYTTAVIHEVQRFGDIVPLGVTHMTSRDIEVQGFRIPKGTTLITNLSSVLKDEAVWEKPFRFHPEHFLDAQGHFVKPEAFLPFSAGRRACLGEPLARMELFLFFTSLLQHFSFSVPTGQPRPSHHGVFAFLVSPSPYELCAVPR
Description: as §1, §2, §3, §4, §5, §6, §7, §8, §9

[1] = Metabolic stability in human liver microsomes; settings: pH 7.4, 1 μM compound, 0.5 mg/mL microsome, NADPH, read-out: Human liver microsome stability t1/2
Description: Test Example 4. Determination of Metabolic Stability of Compound of the Present Application in Liver Microsomes
The metabolic stability of the compound of the present application in liver microsomes was determined using the following method.
I. Experimental materials and instruments • 1. Human liver microsome (Corning 452117), beagle dog liver microsome (XENOTECH D1000), SD rat liver microsome (XENOTECH R1000), and CD-i mouse liver microsome (XENOTECH M1000) • 2. Na2HPO4 (Tianjin Guangfu Fine Chemical Research Institute 20180130) • 3. KH2PO4 (Tianjin Guangfu Fine Chemical Research Institute 20180920) • 4. MgCl2 (Tianjin Guangfu Fine Chemical Research Institute 20191216) • 5. NADPH (Solarbio 1216C022) • 6. Positive control compound verapamil (Sigma MKBV4993V) • 7. AB Sciex API4000 liquid chromatography-mass spectrometry system
as §4, with “of 100 mMV phosphate-buffered saline” for “of 100 mM phosphate-buffered saline”
2. Preparation of reaction system
The reaction system was prepared as follows:
3. The reaction system was pre-incubated in a 37° C. water bath for 10 min. 40 μL of 10 mM NADPH solution (NADPH was dissolved by 100 mM phosphate-buffered saline) was added to the reaction system with a final concentration of NADPH being 1 mM. A negative control was made by replacing the NADPH solution with 40 μL phosphate-buffered saline. The negative control was used to exclude the effect of chemical stability of the compound itself.
4. The reaction was initiated by adding 4 μL of 100 μM of the compound of the present application and verapamil, the positive control compound, to the reaction system with a final concentration of the compound being 1 μM.
5. After being uniformly mixed in a vortex oscillator, 50 μL incubation sample was respectively taken out at 0.5, 15, 30, 45, and 60 min, and the reaction was stopped by 200 μL glacial acetonitrile containing an internal standard. The sample was centrifuged at 3220 g for 45 min. 90 μL of the supernatant was transferred to a feeding plate after the centrifugation was completed, and 90 μL ultrapure water was added. The mixture was well mixed for LC-MS/MS analysis.
All data were calculated by Microsoft Excel software. The peak area was detected through an extracted ion chromatogram. The in vitro half-life (t1/2) of the compound was determined by linear fitting of the natural logarithm of compound elimination percentage over time.
In vitro half-life (t1/2) was calculated by the slope: […]
The in vitro intrinsic clearance (in μL/min/mg protein) was calculated using the following formula:
in vitro CLint=k×volume of incubation (μL)/amount of proteins (mg)
CLint was intrinsic clearance; k was an elimination rate constant; volume of incubation was the incubation volume (μL); amount of proteins was the amount of protein (mg)

CYP3A4, sequence (P08684 whole entry): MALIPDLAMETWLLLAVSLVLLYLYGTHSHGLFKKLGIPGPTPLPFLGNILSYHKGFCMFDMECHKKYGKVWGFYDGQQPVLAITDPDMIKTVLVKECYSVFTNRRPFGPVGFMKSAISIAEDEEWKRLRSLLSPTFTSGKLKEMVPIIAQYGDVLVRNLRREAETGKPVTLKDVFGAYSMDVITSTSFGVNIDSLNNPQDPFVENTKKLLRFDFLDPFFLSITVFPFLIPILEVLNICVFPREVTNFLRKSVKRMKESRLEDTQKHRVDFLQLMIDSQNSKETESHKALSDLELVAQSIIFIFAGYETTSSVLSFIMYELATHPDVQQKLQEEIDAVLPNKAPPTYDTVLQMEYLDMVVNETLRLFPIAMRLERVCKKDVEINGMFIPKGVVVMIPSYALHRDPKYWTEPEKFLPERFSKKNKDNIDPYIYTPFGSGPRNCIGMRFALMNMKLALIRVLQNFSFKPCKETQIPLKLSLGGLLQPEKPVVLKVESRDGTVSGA

Structure (SMILES)	IC50 (CYP3A4) [µM]	IC50 (CYP2D6) [µM]	half-life at 1 μM [1] [h]
Cc1ncccc1-n1c(=O)c2ncn(C)c2c2ccc(C(F)(F)F)nc21 (atropisomer, axis not shown) [Compound 20, 1-methyl-5-(2-methylpyridin-3-yl)-7-(trifluoromethyl)-1,5-dihydro-4H-imidazo[4,5-c][1,8]naphthyridin-4-one]	> 30	> 30	> 5
Cn1cnc2c(=O)n(-c3cccc(F)c3Cl)c3nc(C(F)(F)F)ccc3c21 (atropisomer, axis not shown) [Compound 25, 5-(2-chloro-3-fluorophenyl)-1-methyl-7-(trifluoromethyl)-1,5-dihydro-4H-imidazo[4,5-c][1,8]naphthyridin-4-one]	> 30	> 30	> 5
Cn1cnc2c(=O)n(-c3cccc(F)c3Cl)c3nc(C(F)(F)F)ccc3c21 (single isomer, unassigned) [Compound 25-P2, 5-(2-chloro-3-fluorophenyl)-1-methyl-7-(trifluoromethyl)-1,5-dihydro-4H-imidazo[4,5-c][1,8]naphthyridin-4-one]	> 30	> 30	> 5
Cn1cnc2c(=O)n(-c3cccnc3C(F)(F)F)c3nc(C(F)(F)F)ccc3c21 (single isomer, unassigned) [Compound 41-P2, 1-methyl-7-(trifluoromethyl)-5-(2-(trifluoromethyl)pyridin-3-yl)-1,5-dihydro-4H-imidazo[4,5-c][1,8]naphthyridin-4-one]	> 30	18.2	> 5
Cn1cnc2c(=O)n(-c3cccnc3C3CC3)c3nc(C(F)(F)F)ccc3c21 (single isomer, unassigned) [Compound 42-P2, 5-(2-cyclopropylpyridin-3-yl)-1-methyl-7-(trifluoromethyl)-1,5-dihydro-4H-imidazo[4,5-c][1,8]naphthyridin-4-one]	> 30	> 30	4.26
Cn1cnc2c(=O)n(-c3cccnc3C3CC3)c3cc(C(F)(F)F)ccc3c21 (single isomer, unassigned) [Compound 48-P2, 5-(2-cyclopropylpyridin-3-yl)-1-methyl-7-(trifluoromethyl)-1,5-dihydro-4H-imidazo[4,5-c]quinolin-4-one]	> 30	> 30	> 5
Cn1cnc2c(=O)n(-c3cccnc3C3CC3)c3cc(Cl)ccc3c21 (single isomer, unassigned) [Compound 49-P2, 7-chloro-5-(2-cyclopropylpyridin-3-yl)-1-methyl-1,5-dihydro-4H-imidazo[4,5-c]quinolin-4-one]	> 30	> 30	3.78
O=c1c2ncoc2c2ccc(C(F)(F)F)nc2n1-c1cccnc1C1CC1 (single isomer, unassigned) [Compound 81-P2, 5-(2-cyclopropylpyridin-3-yl)-7-(trifluoromethyl)oxazolo[4,5-c][1,8]naphthyridin-4(5H)-one]	> 30	> 30	> 5
Cn1cnc2c(=O)n(-c3cccc(F)c3Cl)c3cc(Cl)ccc3c21 [Compound 39, 7-chloro-5-(2-chloro-3-fluorophenyl)-1-methyl-1,5-dihydro-4H-imidazo[4,5-c]quinolin-4-one]	> 30	> 30	
Cc1ncccc1-n1c(=O)c2ncoc2c2ccc(C(F)(F)F)nc21 [Compound 40, 5-(2-methylpyridin-3-yl)-7-(trifluoromethyl)oxazolo[4,5-c][1,8]naphthyridin-4(5H)-one]	> 30	> 30	> 5
Cc1ncccc1-n1c(=O)c2ncn(C)c2c2ccc(C(F)(F)F)cc21 [Compound 45, 1-methyl-5-(2-methylpyridin-3-yl)-7-(trifluoromethyl)-1,5-dihydro-4H-imidazo[4,5-c]quinolin-4-one]	> 30	> 30	> 5

From patent US20240124454A1, “TRICYCLIC COMPOUND AND USE THEREOF” (NANJING ZAIMING PHARMACEUTICAL CO., LTD., priority 2020, published 2024)
